Patent US7109215B2, “Compounds possessing neuronal activity” (Vertex Pharmaceuticals Incorporated, priority 1997, dated 2006)
Marks after values point to notes of the source that are not given here.

Columns and labels:
[1] = system: pheochromocytoma PC12 cells; assay: Neurite outgrowth quantitation in PC12 cell system; format: cell-based, rat; settings: for Neurite outgrowth, visual scale of 0 to 4: 1–5 ng/ml NGF, 72 hours
Procedure: In order to directly determine the neurotrophic activity of compounds described in this invention, the neurite outgrowth assay was carried out with pheochromocytoma PC12 cells as described by Lyons et al. (1994).
PC12 cells were maintained at 37° C. and 5% CO2 in Dulbecco's modified Eagle's medium (DMEM) supplemented with 10% heat-inactivated horse serum, 5% heat-inactivated fetal bovine serum (FBS), and 1% glutamate.
The cells were then plated at […] in 96 well plates coated with […] rat tail collagen and allowed to attach overnight. The medium was then replaced with DMEM, 2% heat-inactivated horse serum, 1% glutamate, 1–5 ng/ml of NGF (Sigma) and varying concentrations of the compounds of this invention (0.01 nM–10000 nM). The background control culture was administered with […] of NGF alone without compound. Positive control cultures were administered with high concentration of NGF (50 ng/ml). The cells were then incubated at 37° C. at 5% CO2 for 72 hours, fixed with 3% formaldehyde and nerve outgrowth was determined visually on a scale of 0 to 4.

HL60/Vinc cells = assay: MDR sensitization (reversal) assay, doxorubicin, XTT viability; format: cell-based, human; settings: compound 2.5 μM, IC50 doxorubicin alone / IC50 doxorubicin plus compound
Procedure: We carried out multidrug resistance reversal (MDR) assays using L1210vMDRC.06 or HL60/Vinc cell lines. L1210vMDRC.06 are L1210 mouse leukemia cells transduced with the pHaMDR1/A retrovirus carrying a MDR1 cDNA, as described by Pastan et al., Proc. Natl. Acad. Sci. USA, 85, pp. 4486–4490 (1988). The L1210vMDRC.06 multidrug resistant line is a cell line that has been drug-selected by culturing transfected cells in 0.06 μg/ml colchicine. The HL60/Vinc human promyleocytic leukemia cell line is a multidrug resistant cell line derived from HL60 drug-sensitive parental cells by selection in increasing concentrations of vincristine.
Assays using HL60/Vinc cells were performed by plating cells in 96 well microtiter plates at a concentration of 4×10^4 cells/well. The cells were then exposed to various concentrations of doxorubicin (9 nM to 6.7 μM) in the presence or absence of various compounds of this invention at various concentrations (0.5, 1.0, 2.5, 5.0 or 10 μM) as described in U. Germann et al., Anti-Cancer Drugs, 8, pp. 141–155 (1997). After culturing the cells for 3 days, their viability was quantitated using the XTT dye method to assess mitochondrial function (Roehm et al., supra). Results were expressed as a ratio of the IC50 for doxorubicin alone to the IC50 for doxorubicin plus compound. In all assays the intrinsic antiproliferative or cytotoxicity activity of the MDR inhibitors was also determined for HL60/Vinc cells.

FKBP = FKBP (Homo sapiens, UniProt P62942); assay: Rotamase inhibition assay (chymotrypsin-coupled PPIase assay); format: biochemical; settings: 15 nM FKBP, 30 μM Suc-Ala-Leu-Pro-Phe-pNA, 15° C.
Procedure: Inhibition of FKBP enzyme activity was determined in the PPIase assay described in S. T. Park et al., J. Biol. Chem., 267, pp. 3316–24 (1992), the disclosure of which is herein incorporated by reference. This is a chymotrypsin-coupled assay in which FKBP catalyzes the cis to trans isomerization of the Leu-Pro bond in the peptide substrate Suc-Ala-Leu-Pro-Phe-pNA. The trans form, but not the cis form, is cleavable by chymotrypsin. The release Phe-pNA was monitored by absorbance at 400 nm. Chymotrypsyn cleavage is very rapid and therefore cis-to-trans isomerization is rate-limiting.
Each reaction mix consisted of 0.1 M Tris buffer, pH 7.8, 15 nM FKBP, 30 μM substrate and 0.5 nM to 10 μM of compound to be tested diluted in Me2SO. The mixture was incubated at 15° C. for 5 minutes and then reaction was initiated by addition of chymotrypsin (100 μg/ml final concentration) and followed spectrophotometrically for 5 minutes. Total reaction volume was 1 ml.

FKBP, sequence (P62942 whole entry): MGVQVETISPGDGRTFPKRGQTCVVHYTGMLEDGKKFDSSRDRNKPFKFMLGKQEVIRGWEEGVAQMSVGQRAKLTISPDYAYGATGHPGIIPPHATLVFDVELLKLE

Ki (FKBP)	SMILES	Neurite outgrowth, visual scale of 0 to 4 ([1]; compound 10 nM)	Neurite outgrowth, visual scale of 0 to 4 ([1]; compound 100 nM)	Neurite outgrowth, visual scale of 0 to 4 ([1]; compound 1000 nM)	MDR Ratio (HL60/Vinc cells)	Neurite outgrowth, visual scale of 0 to 4 ([1]; compound 0.01 nM)	Neurite outgrowth, visual scale of 0 to 4 ([1]; compound 0.1 nM)	Neurite outgrowth, visual scale of 0 to 4 ([1]; compound 1 nM)	Neurite outgrowth, visual scale of 0 to 4 ([1]; compound 10000 nM)	Neurite outgrowth over background control cultures (in words) ([1]; PC12 assay)
	CN(C(=O)[C@H](Cc1ccccc1)N(C)S(=O)(=O)c1ccc(F)cc1)C(CCCc1cccnc1)CCCc1cccnc1 [Compound 14]	3*	2*	4*	19.9					
	CC(=O)Nc1ccc(S(=O)(=O)N(C)[C@@H](Cc2ccccc2)C(=O)N(C)C(CCCc2cccnc2)CCCc2cccnc2)cc1 [Compound 15]	3*	3*	3*	2.4					
	CN(C(=O)[C@H](Cc1ccccc1)N(C)S(=O)(=O)c1ccc(C#N)cc1)C(CCCc1cccnc1)CCCc1cccnc1 [Compound 16]	3*	4*	3*	19.9					
	COc1ccc(S(=O)(=O)N(C)[C@@H](Cc2ccccc2)C(=O)N(C)C(CCCc2cccnc2)CCCc2cccnc2)cc1OC [Compound 17]	3*	3*	4*	14.6					
> 50 µM	COc1ccc(S(=O)(=O)N(C)[C@@H](Cc2ccccc2)C(=O)N(C)C(CCCc2cccnc2)CCCc2cccnc2)cc1 [Compound 18]	3*	4*	4*	10.8					
> 50 µM	O=C(OCc1ccccc1)C1CCCCN1 (centres unmarked) [Compound 101]									
	O=C(OC(CCCc1cccnc1)CCCc1cccnc1)C1CCCCN1 (centres unmarked) [Compound 102]	4**	2**	3**	1.2	3*	3*	4*	4*	
> 50 µM	O=C(NCc1cccnc1)C1CCCCN1 (centres unmarked) [Compound 103]	0	0	0	0.7					Negative results
> 50 µM	O=C(NCc1ccncc1)C1CCCCN1 (centres unmarked) [Compound 104]	2*	4*	3*	0.6	3*	3*	2*	4*	
> 50 µM	CN(CCc1ccccn1)C(=O)C1CCCCN1 (centres unmarked) [Compound 106]		1*	2*	1.2					
	CNC(Cc1ccccc1)C(=O)N(C)C(CCCc1cccnc1)CCCc1cccnc1 (centres unmarked) [Compound 109]	3*	2*	4*		3*	4*	4*	3*	
